SMILES strings stand for the structures. Like-named read-outs stand apart in the source and are kept apart here. Some results are limits rather than exact numbers.

This is an account of results in publication PMC7429951 (Journal of Medicinal Chemistry, 2020).

For one assay, the target named is LasB (Pseudomonas aeruginosa, UniProt Q02RJ6). Put plainly: biochemical. As to conditions: LasB IC50, FRET-based assay.
Assay [1] deals with peptidase domain of ColH (ColH-PD) (Hathewaya histolytica, UniProt Q46085). Put plainly: biochemical. As to conditions: read-out: ColH-PD % inhibition @ 1 μM. Details: species or system Clostridium histolyticum.
Assay [2] deals with P. aeruginosa strain PA14. Put plainly: Bacterial growth inhibition assay (MIC) P. aeruginosa. It is filed as cell-based, Pseudomonas aeruginosa.

Chain of peptidase domain of ColH (ColH-PD) (Q46085 331-721 limits assumed): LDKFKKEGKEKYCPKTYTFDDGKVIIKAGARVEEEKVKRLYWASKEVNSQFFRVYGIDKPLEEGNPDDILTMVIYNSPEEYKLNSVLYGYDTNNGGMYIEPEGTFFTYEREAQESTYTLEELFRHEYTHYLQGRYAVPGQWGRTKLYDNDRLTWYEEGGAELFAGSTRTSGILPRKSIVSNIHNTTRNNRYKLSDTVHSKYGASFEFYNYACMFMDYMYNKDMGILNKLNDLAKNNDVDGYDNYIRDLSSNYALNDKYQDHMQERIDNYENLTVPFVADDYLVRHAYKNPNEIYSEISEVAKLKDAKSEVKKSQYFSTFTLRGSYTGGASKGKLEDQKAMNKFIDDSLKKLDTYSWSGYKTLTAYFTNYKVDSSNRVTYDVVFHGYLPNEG
Chain of LasB (Q02RJ6 198-498): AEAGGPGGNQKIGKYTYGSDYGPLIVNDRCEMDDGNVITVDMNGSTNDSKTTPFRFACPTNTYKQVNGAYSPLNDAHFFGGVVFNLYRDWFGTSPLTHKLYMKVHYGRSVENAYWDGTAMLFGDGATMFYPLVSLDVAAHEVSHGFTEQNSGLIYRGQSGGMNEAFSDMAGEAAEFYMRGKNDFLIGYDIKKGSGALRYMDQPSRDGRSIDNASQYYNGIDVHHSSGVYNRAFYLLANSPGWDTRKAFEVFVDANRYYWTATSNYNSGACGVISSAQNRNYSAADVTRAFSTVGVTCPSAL

As a reminder, the IC50 is the concentration that inhibits the measured activity by half. Lower therefore signals inhibition by little substance. As a reminder, the inhibition is the relative decrease from the control value, in per cent. Consider `O=C1CC(S)C(=O)N1c1ccccc1` (centres unmarked) [Compound 7], for which the 50% inhibitory concentration (IC50) at LasB was 44.2 ± 2.3 µM. Further, the inhibition at 1 µM in assay [1] was found to be 8 ± 2%.
For `Cc1ccc(N2C(=O)CC(S)C2=O)cc1` (centres unmarked) [Compound 8], the IC50 at LasB was 50.6 ± 1.6 µM. Besides, in assay [1], the inhibition at 1 µM came to 34%.
Turning to `O=C1CC(S)C(=O)N1c1ccccc1Cl` (centres unmarked) [Compound 10], the IC50 against LasB was found to be 8.5 ± 0.4 µM. Further, in assay [1], the inhibition at 1 µM was determined as 8 ± 1%.
As to `O=C1CC(S)C(=O)N1c1cccc(Cl)c1` (centres unmarked) [Compound 11], half-maximal inhibition on LasB (IC50) was put at 8.1 ± 0.5 µM. Moreover, the inhibition at 1 µM in assay [1] was 0%.
In turn, `O=C1CC(S)C(=O)N1c1ccc(Cl)cc1` (centres unmarked) [Compound 12] gave a 50% inhibitory concentration (IC50) against LasB of 16.5 ± 0.8 µM. Also, the inhibition at 1 µM in assay [1] stood at 33%.
`O=C1CC(S)C(=O)N1c1c(Cl)cccc1Cl` (centres unmarked) [Compound 14] registered an IC50 against LasB of 16 ± 3.7 µM. In addition, the inhibition at 1 µM in assay [1] is 8 ± 3%.
The term MIC denotes the lowest concentration found to suppress growth. On to `O=C1CC(S)C(=O)N1c1ccc(F)c(F)c1` (centres unmarked) [Compound 15], for which the minimum inhibitory concentration (MIC) in assay [2] and in assay [2] (Pseudomonas aeruginosa) was over 100 µM each time. The molecule also had a half-maximal inhibitory concentration (IC50) at LasB of 3.5 ± 0.2 µM. The inhibition at 1 µM in assay [1] stood at 2 ± 2%.
`Cc1ccc(Cl)cc1N1C(=O)CC(S)C1=O` (centres unmarked) [Compound 16] yielded an IC50 at LasB of 15 ± 0.6 µM. In assay [1], the inhibition at 1 µM amounted to 6 ± 1%.
Consider `Cc1ccc(Cl)c(C)c1N1C(=O)CC(S)C1=O` (centres unmarked) [Compound 17], for which, on LasB, the IC50 came to 30.5 ± 5.4 µM. The inhibition at 1 µM in assay [1] came to 6 ± 5%.
Consider `COc1ccccc1N1C(=O)CC(S)C1=O` (centres unmarked) [Compound 18], for which the midpoint of inhibition at LasB, the IC50, lay at 28.9 ± 1.6 µM. Also, the inhibition at 1 µM in assay [1] was determined as 0%.
Molecule `COc1cccc(N2C(=O)CC(S)C2=O)c1` (centres unmarked) [Compound 19] yielded an IC50 at LasB of 40.2 ± 1.4 µM. Also, the inhibition at 1 µM in assay [1] is -3 ± 9%.
Regarding `COc1ccc(N2C(=O)CC(S)C2=O)c(OC)c1` (centres unmarked) [Compound 21], the half-maximal inhibitory concentration (IC50) at LasB stood at 45 ± 0.8 µM. Also, the inhibition at 1 µM in assay [1] turned out to be 2 ± 13%.
Regarding `O=C1CC(S)C(=O)N1c1ccc(OC(F)(F)F)c(Cl)c1` (centres unmarked) [Compound 23], on LasB, half-maximal inhibition (IC50) was put at 55.2 ± 4.4 µM. Moreover, in assay [1], the inhibition at 1 µM turned out to be 18 ± 12%.
On LasB, `O=C1CC(S)C(=O)N1c1cccc([N+](=O)[O-])c1` (centres unmarked) [Compound 24] returned a half-maximal inhibitory concentration (IC50) of 22.2 ± 0.4 µM. The inhibition at 1 µM in assay [1] turned out to be 4 ± 4%.
On the same counts, the results for `O=C1CC(S)C(=O)N1c1ccc(-c2ccccc2)cc1` (centres unmarked) [Compound 27] are 44.6 ± 1.1 µM and 5 ± 2%.
Molecule `COc1ccc(N2C(=O)CC(SC(C)=O)C2=O)cc1` (centres unmarked) [Compound 28] yielded an IC50 on LasB of over 200 µM. Besides, the inhibition at 1 µM in assay [1] is 24 ± 2%.
On the same counts, the results for `CC(=O)SC1CC(=O)N(c2ccc(Cl)c(Cl)c2)C1=O` (centres unmarked) [Compound 29] are over 200 µM and -1 ± 7%.
On the same counts, the results for `CC(=O)SC1CC(=O)N(c2ccc(OC(F)(F)F)c(Cl)c2)C1=O` (centres unmarked) [Compound 30] are over 200 µM and -11 ± 2%.
On the same counts, the results for `CC(=O)SCC1CC(=O)N(c2ccccc2)C1=O` (centres unmarked) [Compound 40] are over 200 µM and -15 ± 5%.
With `CC(=O)SCC1CC(=O)N(c2ccc(Cl)c(Cl)c2)C1=O` (centres unmarked) [Compound 41], the half-maximal inhibitory concentration (IC50) against LasB was over 200 µM. Further, the inhibition at 1 µM in assay [1] was -1 ± 2%.
The molecule `CC(=O)SCC1CC(=O)N(c2ccc(C(C)=O)cc2)C1=O` (centres unmarked) [Compound 42] showed an IC50 against LasB of over 200 µM. Besides, the inhibition at 1 µM in assay [1] was determined as 2 ± 5%.
For `COc1ccc(N2C(=O)CC(CSC(C)=O)C2=O)cc1` (centres unmarked) [Compound 43], the IC50 against LasB was over 200 µM. Besides, the inhibition at 1 µM in assay [1] is 4 ± 6%.
On to `O=C1CC(CS)C(=O)N1c1ccc(Cl)c(Cl)c1` (centres unmarked) [Compound 50], for which the MIC in assay [2] and in assay [2] (Pseudomonas aeruginosa) was over 100 µM throughout. At LasB, this molecule came in with an IC50 of 5.4 ± 0.7 µM. For the same molecule, the inhibition at 1 µM in assay [1] turned out to be 2 ± 3%.
As to `O=C1CC(CS)C(=O)N1c1ccc(F)c(F)c1` (centres unmarked) [Compound 51], the minimal inhibitory concentration (MIC) in assay [2] and in assay [2] (Pseudomonas aeruginosa) was over 100 µM throughout. This molecule also yielded an IC50 against LasB of 10.1 ± 1.4 µM. Moreover, the inhibition at 1 µM in assay [1] was determined as 2 ± 1%.
Regarding `CC(=O)c1ccc(N2C(=O)CC(CS)C2=O)cc1` (centres unmarked) [Compound 52], the IC50 against LasB was over 200 µM. In addition, the inhibition at 1 µM in assay [1] is 8 ± 3%.
